According to patent US11040976B2, “Substrate selective inhibitors of insulin-degrading enzyme (IDE) and uses thereof” (President and Fellows of Harvard College, priority 2015, dated 2021):

Target: T1, human IDE Ala479Leu (Homo sapiens, UniProt P14735, A479L)
T1 construct: N-His6-tagged human IDE42-1019 construct was introduced in the expression plasmid pTrcHis-A; His6 (N); made in house; host or cells: E. coli Rosetta 2 (DE3) pLysS
T1 sequence (P14735 42-1019 A479L): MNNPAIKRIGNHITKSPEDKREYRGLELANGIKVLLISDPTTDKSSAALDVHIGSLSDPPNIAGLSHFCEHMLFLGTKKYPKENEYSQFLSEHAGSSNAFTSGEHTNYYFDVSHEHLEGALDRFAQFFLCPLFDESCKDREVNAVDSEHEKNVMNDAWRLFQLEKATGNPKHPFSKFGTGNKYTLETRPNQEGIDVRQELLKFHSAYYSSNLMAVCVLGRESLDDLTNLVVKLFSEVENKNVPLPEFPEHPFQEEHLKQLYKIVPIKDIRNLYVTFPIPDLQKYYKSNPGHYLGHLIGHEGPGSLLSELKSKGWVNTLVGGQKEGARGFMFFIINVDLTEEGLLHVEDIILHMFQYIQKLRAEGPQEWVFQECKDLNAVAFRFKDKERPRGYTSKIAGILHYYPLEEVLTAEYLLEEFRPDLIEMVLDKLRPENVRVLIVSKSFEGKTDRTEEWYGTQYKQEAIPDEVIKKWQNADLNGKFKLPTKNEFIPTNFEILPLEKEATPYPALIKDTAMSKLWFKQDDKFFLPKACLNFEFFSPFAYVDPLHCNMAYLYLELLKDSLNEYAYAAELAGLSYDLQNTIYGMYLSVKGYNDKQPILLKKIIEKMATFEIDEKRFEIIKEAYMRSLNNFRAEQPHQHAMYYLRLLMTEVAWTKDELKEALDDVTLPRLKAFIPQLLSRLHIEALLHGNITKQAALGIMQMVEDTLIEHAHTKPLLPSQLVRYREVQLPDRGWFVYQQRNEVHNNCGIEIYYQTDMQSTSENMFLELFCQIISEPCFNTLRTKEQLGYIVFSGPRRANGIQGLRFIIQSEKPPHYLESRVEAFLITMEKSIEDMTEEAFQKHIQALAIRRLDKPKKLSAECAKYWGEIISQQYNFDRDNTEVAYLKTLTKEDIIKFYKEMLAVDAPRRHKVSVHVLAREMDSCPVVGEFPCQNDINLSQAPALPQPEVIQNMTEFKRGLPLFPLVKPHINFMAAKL
Test: Activity assay of mutant human IDE variant A479L with IDE inhibitors
Assay type: biochemical
Text: N-His6-tagged human IDE42-1019 construct was introduced in the expression plasmid pTrcHis-A (Invitrogen) using primers for uracil-specific excision reactions (USER) by Taq (NEB) and Pfu polymerases (PfuTurbo CX®, Agilent), as described in more detail in Maianti et al. (Nature (2014), 511, 94-98), which is incorporated by reference herein. The IDE gene was amplified with the primers 5′-[…]-dU-[…] (SEQ ID NO: 26) and 5′-[…] G-dU-[…] (SEQ ID NO: 27) (underlined sequences represent overhangs, and italics highlight the PCR priming sequence). Similarly, the pTrcHis-A vector was amplified for USER cloning with the primers 5′-[…]-dU-[…] (SEQ ID NO: 28) and 5′-[…]-dU-[…] (SEQ ID NO: 29). Mutant IDE constructs were generated by amplifying the full vector construct with USER cloning primers introducing a mutant overhang (see Table E6).
Recombinant His6-tagged proteins were purified by Ni(II)-affinity chromatography (IMAC sepharose beads, GE Healthcare®) according to the manufacturer's instructions. The cell pellets were re-suspended in pH 8.0 buffer containing 50 mM phosphate, 300 mM NaCl, 10 mM imidazole, 1% Triton X-100 and 1 mM tris(2-carboxyethyl)phosphine hydrochloride (TCEP), and were lysed by probe sonication for 4 minutes at <4° C., followed by clearing of cell debris by centrifugation at 10,000 g for 25 minutes at 4° C. […]

## NCCCC[C@@H]1NC(=O)/C=C/C(=O)N[C@H](C(N)=O)CCCCNC(=O)[C@@H](Cc2ccc(C(=O)c3ccccc3)cc2)NC(=O)[C@H](CC2CCCCC2)NC1=O [6bK, reference compound]
  effect of Ala479Leu mutation on inhibition of IDE: blocks 6bK from inhibiting IDE
